Here are results for three molecules from US20240285589A1, “TREATMENT USING AN ANTIVIRAL COMPOUND AND NITAZOXANIDE” (priority 2021, published 2024).

Format in all cases: in vivo, human
Experiment [1] deals with persistent Herpes 4 and Herpes 6 infections. The experiment in a line: Case Study 5: person with severe fatigue. The procedure:
An active person had struggled with depression and obsessive-compulsive disorder in the past, but these problems were well-controlled with medications. They actively engaged in daily exercising, including skiing, bicycle riding, and vigorous walking. Suddenly, they developed severe fatigue. […] The patient was started on valacyclovir at a dose of 1000 mg two times per day orally. […] Then they were switched to famciclovir, titrating from 500 mg two times per day to 1000 mg two times per day orally. […] Within two months, the patient noted less fatigue.

The test system of experiment [2] is persistent Herpes 1 and Herpes 4 infections. The experiment can be described thus: Case Study 4: person with memory problems, dementia consistent with Alzheimer's disease. The conditions noted are these: after six months. The procedure: A person presented for evaluation of memory problems. Cognitive testing was consistent with dementia. A SPECT functional brain scan was performed. The results were consistent with Alzheimer's disease. […] The patient was started on antiviral therapy with valacyclovir 1000 mg two times per day orally. The valacyclovir was stopped and famciclovir was started at 500 mg two times per day orally. After one month, the famciclovir was increased to 1000 mg two times per day orally. […] was added to their regimen at a dose of 500 mg two times per day orally. […] Family members were thrilled with the improvement.

Experiment [3] deals with persistent Herpes 4 and 6 infections. The experiment can be described thus: Case Study 3: late-middle-aged person with Parkinson's disease symptoms and depression, perfusion SPECT. To be noted: valacyclovir 1000 mg in the morning and 2000 mg at night orally; after three months. From the text:
FIGS. 1A-1B show perfusion SPECT scan from Case Study 3. […] Scale illustrates levels of perfusion with normal perfusion at the central light grey and decreased perfusion illustrated by progressively darker shades of grey.
A late-middle-aged person presented for evaluation of Parkinson's disease and depression. They had been diagnosed with Parkinson's disease by a neurologist based on clinical signs of tremor and bradykinesia. No neuroimaging had been done. […] A single-photon emission computed tomography (SPECT) brain perfusion scan and a dopamine transporter SPECT scan (DaTscan) were ordered. […] The patient was started on antiviral therapy with valacyclovir at 1000 mg two times per day orally. The dose was increased to 1000 mg orally in the morning and 2000 mg orally at night. […] A repeat perfusion SPECT brain scan was performed (FIG. 1B).

Experiment [4] has as its system herpes 4 and 6 as persistent infections. The experiment can be described thus: Case Study 1: adult with CFS, anxiety and irritable bowel syndrome. The conditions noted are these: valacyclovir 1000 mg two times per day orally, alone. Here is the method: Antiviral therapy with valacyclovir at 1000 mg two times per day orally was begun. […] NTZ was added at 500 mg two times per day orally to the regimen.

Experiment [5] concerns Epstein-Barr virus and Herpes 1 virus. The experiment can be described thus: Case Study 6: person with severe depression, IBS, brain fog, fatigue, headaches, SPECT. To be noted: valacyclovir 1000 mg two times per day orally; after three months. From the text: Scale illustrates levels of perfusion in a different manner from FIG. 1. The dark grey central portion of the scale illustrates statistically normal perfusion in a given area relative to a normative database. Areas of progressively lighter grey to white illustrate areas which are 2 standard deviation (SD), 3 SD, and 4 SD below the mean of the normative database, respectively.
A person presented with a history of depression since their teen years. They were severely depressed upon presentation (Quick Inventory of Depressive Symptomatology scale 26/27) and spent most of their time in their bedroom in the basement of their parent's house. They had withdrawn from college and had never held a full-time job. Their condition was complicated by irritable bowel syndrome, brain fog, pervasive fatigue, and headaches. […] The patient also underwent a functional brain scan (single photon emission computed tomography—SPECT). […] The patient was started on the antiviral valacyclovir at 1000 mg two times per day orally. […] NTZ was added at a dose of 500 mg two times per day orally. After one month, the dose of NTZ was increased to 1000 mg two times per day orally.

Experiment [6] concerns persistent Herpes 4 and 6 infections. The experiment can be described thus: Case Study 2: adult with multiple symptoms of VIFD (CFS, fibromyalgia, pain). From the text: An adult presented with multiple symptoms of VIFD across multiple systems. They experienced fatigue, brain fog, and unrefreshing sleep consistent with CFS. They experienced muscle and joint pain with trigger point pain and exaggerated reactions to pain consistent with fibromyalgia. They experienced pelvic and vaginal pain, headaches, depression, anxiety, sore throat, painful lymph nodes, numbness, and generalized pain. The symptoms involved the central nervous system, the genitourinary system, the gastrointestinal system, the immune system, the musculoskeletal system and the peripheral nervous system. […] The dose of valacyclovir was increased to 2000 mg two times per day orally. […] NTZ was then added at 500 mg two times per day orally.

Structures are written as SMILES.

With `CC(=O)OCC(CCn1cnc2cnc(N)nc21)COC(C)=O` [famciclovir], the “symptoms of severe fatigue” value in experiment [1] (famciclovir titrated from 500 mg to 1000 mg two times per day orally, after three months) is listed as “no improvement”. Further, the “memory function as reflected by scores on cognitive testing” value in experiment [2] (famciclovir 500 mg then 1000 mg two times per day orally) is recorded as “modest improvement”. Also, in experiment [2] (famciclovir 1000 mg two times per day orally), the daily memory function entry is listed as “struggled still with daily memory function”.

With `CC(C)[C@H](N)C(=O)OCCOCn1cnc2c(=O)[nH]c(N)nc21` [valacyclovir], in experiment [3], the depression symptoms result is given as “marked improvement”; the energy and motivation entry was “improved energy and motivation”; the tremor and bradykinesia result is “continued to experience tremor and bradykinesia”. Further, in experiment [4], the “brain fog, anxiety, bowel movements” value is “still struggled with brain fog, anxiety, and frequent bowel movements”; the fatigue result is given as “modest improvement in fatigue”; the “need to nap on a daily basis” value is given as “no longer needed to nap on a daily basis”. Besides, in experiment [5], the clarity of thinking result is “could think more clearly”, the depression entry is “somewhat less depressed”, the fatigue result is given as “somewhat less fatigued” and the improvement in symptoms result was “roughly 20%”. In experiment [1] (valacyclovir 1000 mg bid orally, after four months increased to 2000 mg two times per day), the “symptoms of severe fatigue” value is on record as “did not improve”. Further, in experiment [6] (valacyclovir 1000 mg two times per day orally, over three months), the symptoms result is “minor improvement”. In addition, the symptoms result in experiment [6] (valacyclovir increased to 2000 mg two times per day orally) is recorded as “slight additional benefit”.

Regarding `CC(C)[C@H](N)C(=O)OCC(CO)OCn1cnc2c(=O)nc(N)[nH]c21` (some centres unmarked) [valganciclovir], the “symptoms of severe fatigue” value in experiment [1] (valganciclovir titrated from 450 mg to 900 mg two times per day, after four months) was “without improvement”.
